Patent publication US8017350B2, “Glimepiride- and insulin-induced glycosylphosphatidylinositol-specific phospholipase C regulation” (Sanofi-Aventis Deutschland GmbH, priority 2004, dated 2011)

Columns and labels:
[1] = tested on: pp59Lyn and Gce1 / caveolin-1 in hcDIGs of rat adipocytes; test: Dissociation of pp59Lyn and Gce1 from caveolin-1; assay type: cell-based; conditions: Adipocyte, FIG. 6 Panel B, read-out: IC50 for abrogation of losses from caveolin-1 immunoprecipitates
Description: Solubilized DIGs (see above, 5-20 μg protein) were precleared by incubation with protein A/G-Sepharose and subsequent centrifugation (10,000×g, 5 min). The supernatant was incubated with anti-caveolin-1 antibodies (1:1000) preadsorbed on protein A/G-Sepharose in 1 ml of 10 mM Tris/HCl (pH 7.4), 150 mM NaCl, 1% TX-100 for 1 h at 4° C. The immune complexes were washed twice with the same buffer and then twice with buffer lacking TX-100 and finally subjected to SDS-PAGE performed in the absence of β-mercaptoethanol. The recovery of immunoprecipitated caveolin was normalized by homologous immunoblotting with anti-caveolin antibodies of the same blot following stripping of the membrane.
Next we investigated the putative causal relationship between dissociation from caveolin/activation and stimulus-dependent lipolytic cleavage of GPI-proteins in rat adipocytes by inhibiting GPI-PLC and subsequent analysis of the interaction with caveolin-1 of Gce1 and pp59^Lyn as well as kinase activity of the latter (FIG. 6). […] This potency is similar to GPI-PLC inhibition by GPI-2350 in intact adipocytes (FIG. 3). […]

[2] = target: T1, Lipoprotein lipase (LPL) from bovine milk (Bos taurus, UniProt P11151); test: lipoprotein lipase assay (radiolabeled triolein emulsion); assay type: biochemical; conditions: 50 μM
T1 construct: purchased SigmalAldrich (Deisenhofen, Germany); host or cells: bovine milk
Description: Hormone-sensitive lipase (HSL) and lipoprotein lipase (LPL) were measured using a radiolabeled triolein droplet emulsion as described in “Vertesy et al., (2002) Journal Antibiotics 55:480-494”. Pancreatic lipase (PL) was determined by incubation of 0.25 mmol tributyrin in 2 ml of 5 mM Tris/HCl (pH 6.5), 6 mM sodium taurodeoxycholate, 150 mM NaCl, 1 mM CaCl2 with porcine PL and colipase in the same buffer using a recording pH stat (stirring at 1000 rpm at 25° C.) with the pH adjusted to 6.5. PC-PLC was assayed by incubation of 0.2 ml of 10 mM dipalmitoyllecithin, 0.1 ml of 10 mM SDC and 0.1 ml of 0.03 M CaCl2 with bacterial PC-PLC (in 50 mM Tris/HCl, pH 7.5, 0.1% BSA) for 10 min at 37° C. The reaction was terminated by addition of 0.1 ml of 50% TCA and subsequently of 2.5 ml of […]. After centrifugation (1500×g, 15 min), 0.2-ml portions of the upper methanol/water phase (˜1.33 ml) were removed, supplemented with 0.5 ml of 60% HClO4, then heated at 170° C. for 1 h and finally analyzed for inorganic phosphate. Mammalian PI-PLC was measured by incubation of 0.1 ml of 10 mM PI, 0.1 ml of 0.8% sodium deoxycholate, 0.1% BSA, 0.2 ml of 100 mM sodium borate (pH 7.5) and rat liver PI-PLC for 20 min at 37° C. The reaction was terminated and further processed as described for the PC-PLC. […] Radioactive phosphatidic acid was detected by phosphorimaging. […]

T1 sequence (P11151 29-478): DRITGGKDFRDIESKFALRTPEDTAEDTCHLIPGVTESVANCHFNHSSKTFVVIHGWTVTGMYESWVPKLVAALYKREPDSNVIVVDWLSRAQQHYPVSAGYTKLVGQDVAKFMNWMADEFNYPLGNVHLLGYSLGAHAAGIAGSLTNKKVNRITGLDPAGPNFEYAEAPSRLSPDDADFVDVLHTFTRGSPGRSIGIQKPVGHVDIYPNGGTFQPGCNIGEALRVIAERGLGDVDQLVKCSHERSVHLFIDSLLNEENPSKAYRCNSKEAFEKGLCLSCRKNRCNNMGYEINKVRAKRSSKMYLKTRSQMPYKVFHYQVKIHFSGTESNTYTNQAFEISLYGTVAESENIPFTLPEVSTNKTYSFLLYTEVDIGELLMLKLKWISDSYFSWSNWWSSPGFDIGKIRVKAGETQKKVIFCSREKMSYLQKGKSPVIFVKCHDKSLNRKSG

For `CCCCCCCCCCCCP1(=O)O[C@@H]2[C@H](O)[C@@H](O)[C@H](O)[C@@H](O)[C@@H]2O1` (some centres unmarked) [GPI-2350, myo-inositol-1,2-cyclo-dodecylphosphonic acid], the IC50 [1] was 5 to 10 µM and the “effect on LPL” value [2] was “not significantly affected”.
